Data as given in patent US10774122B2, “ERG targeted therapy” (The Regents of the University of Michigan, priority 2017, dated 2020).
Read-outs that look alike come from different tables or passages of the source. Where a SMILES comes first, the peptide text is derived from it. Where no end group is shown, it is not given here. [ ]: non-standard residue; d: D form.

Experiments:
ERG:AR interaction [1] = target: T1, ERG:AR interaction (Homo sapiens, UniProt P11308); test: In vitro peptide competitive pull-down assay (cell-free); details: Halo-ERG with recombinant AR, increasing peptide concentrations
T1 sequence (P11308 1-479): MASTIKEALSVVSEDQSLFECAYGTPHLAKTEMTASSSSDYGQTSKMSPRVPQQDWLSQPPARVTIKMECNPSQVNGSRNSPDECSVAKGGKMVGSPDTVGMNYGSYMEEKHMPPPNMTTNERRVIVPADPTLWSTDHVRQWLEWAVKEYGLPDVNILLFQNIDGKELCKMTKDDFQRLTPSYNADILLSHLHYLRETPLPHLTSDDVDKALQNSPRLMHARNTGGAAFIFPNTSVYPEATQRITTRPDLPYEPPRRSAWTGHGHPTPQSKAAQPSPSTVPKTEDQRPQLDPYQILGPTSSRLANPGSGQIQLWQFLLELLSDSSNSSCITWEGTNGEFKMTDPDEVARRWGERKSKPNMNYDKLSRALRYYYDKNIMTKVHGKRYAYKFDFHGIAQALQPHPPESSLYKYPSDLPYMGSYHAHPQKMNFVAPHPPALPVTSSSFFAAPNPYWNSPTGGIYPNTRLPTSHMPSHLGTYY
Protocol: (§1) Halo-ERG fusion protein was expressed using in vitro transcription/translation system as described above. […] Protein mixtures were incubated with or without the peptides in PBS-T (0.1% Tween) at 4° C. overnight. Simultaneously, HaloLink beads (Promega) were blocked in 5% BSA at 4° C. overnight. The next day 10 μl of HaloLink beads were mixed with the protein-peptide mixture, incubated at RT for 1 hour, washed with 4× in PBS-T and eluted into SDS sample buffer. […] HaloLink beads without incubation with fusion proteins were used as negative controls.

ERG:DNA-PKcs interaction [2] = target: T2, ERG:DNA-PKcs interaction (Homo sapiens, UniProt P11308); test: as above; details: Halo-ERG with purified DNA-PKcs, increasing peptide concentrations
T2 sequence (P11308 1-479): T1 sequence (P11308 1-479)
Protocol: as §1

ERG [3] = target: T3, ERG (Homo sapiens, UniProt P11308); test: ERG:peptide binding by biolayer interferometry (OctetRED); details: for binding to ERG: OctetRED, result in words
T3 sequence (P11308 1-479): T1 sequence (P11308 1-479)
Protocol: The interaction coefficients between ERG and synthetic peptides or peptidomimetics were determined by biolayer interferometry technology using the Octet Red system (ForteBio). Purified ERG and GUS proteins were biotinylated by EZLink NHS-PEG4 Biotinylation Kit (Thermo Scientific) following the manufacturer's protocol and any unincorporated biotin was removed from the reactions with Zeba 2 ml desalt columns (Thermo). Biotinylated proteins (500 μg/ml) were then incubated with super streptavidin biosensors in binding buffer (20 mM HEPES pH 7.4, 150 mM NaCl), blocked with 10 μg/ml biocytin and washed three times in binding buffer. Peptides were serially diluted in binding buffer, mixed with the protein-coupled biosensors and peptidomimetic:protein association/dissociation was monitored for 10 min at 25° C. Nonspecific binding from the signal obtained from peptidomimetic:GUS interactions was subtracted from that of peptidomimetic:ERG interactions and baseline signal drift was controlled by monitoring immobilized ERG without peptide. Octet Red analysis software was used to analyze the data.

[4] = test system: Ewing sarcoma cells containing the EWS-ERG fusion; type: cell-based
From the text: (A) Pull down of ERG in Ewing sarcoma cells containing a EWS-ERG fusion and reduced tumor growth in xenografts models of Ewing sarcoma. (B) Tumors containing the EWS-FLI1 fusion or osteosarcomas (A204) are not affected by treatments with peptides of the disclosure. […] Similarly, invasion potential was reduced by EIP1 and EIP2 treatment in Ewing sarcoma cells containing the EWS-ERG fusion.

[5] = test system: cells containing the EWS-FLI1 fusion; test: DNA damage in Ewing sarcoma cells; type: cell-based
ERG:AR interaction [6] = target: T1, ERG:AR interaction
Protocol: as §1
ERG:DNA-PKcs interaction [7] = target: T2, ERG:DNA-PKcs interaction
Protocol: as §1

ERG [8] = target: T4, ERG (Homo sapiens, UniProt P11308); test: Kd[μM]
T4 construct: cDNAs encoding full-length ERG and GUS were cloned into pDEST10 vector; His; made in house; host or cells: SF9 insect cells (Bac-to-Bac baculovirus)
From the text: Table printed on a drawing sheet, FIG. 14 Head of the field: Kd[μM] […] Where the first naming reader finds the target: passage: the importance of the PYL residues for binding to ERG was identified

ERG:AR interaction [9] = target: ERG:AR interaction (Homo sapiens, UniProt P11308); test: IP-Western blot in VCaP cells
Protocol: (§2) VCaP cells were seeded in 6-well plates at 0.5×10^6 cells/ml and after allowing cells to attach, cells were harvested and homogenized in NP40 lysis buffer (Sigma) containing a complete protease inhibitor cocktail (Roche). Ten micrograms of each protein extract was boiled in SDS sample buffer, size fractionated by SDS-PAGE, and transferred onto a PVDF membrane (GE Healthcare). […] Following three washes in TBS-T, the blots were incubated with horseradish peroxidase conjugated secondary antibody and the signals visualized by enhanced chemiluminescence system according to manufacturer's instructions (GE Healthcare).
(§3) Cell pellets or tumors treated with or without the peptidomimetics were lysed in cell lysis buffer (20 mM MOPS, pH 7.0, 2 mM EGTA, 5 mM EDTA, 30 mM sodium fluoride, 60 mM β-glycerophosphate, 20 mM sodium pyrophosphate, 1 mM sodium orthovanadate, 1% Triton X-100, 1 mM DTT, protease inhibitor cocktail (Roche)). Cell lysates (0.5-1.0 mg) were pre-cleaned with protein A/G agarose beads (Santa Cruz) by incubation for 1 hour with shaking at 4° C. followed by centrifugation at 2000 rpm for 3 minute. Lysates were then incubated with 2 μg ERG antibody (Santa Cruz, C-17) at 4° C. for 4 hours with shaking prior to addition of 20 μl protein A/G agarose beads and incubated at 4° C. overnight. […] Samples were then analyzed by SDS-PAGE and Western blot analysis as described above.
ERG:DNA-PKcs interaction [10] = target: T5, ERG:DNA-PKcs interaction (Homo sapiens, UniProt P11308); test: IP-Western blot in VCaP cells
T5 sequence (P11308 33-479 limits assumed): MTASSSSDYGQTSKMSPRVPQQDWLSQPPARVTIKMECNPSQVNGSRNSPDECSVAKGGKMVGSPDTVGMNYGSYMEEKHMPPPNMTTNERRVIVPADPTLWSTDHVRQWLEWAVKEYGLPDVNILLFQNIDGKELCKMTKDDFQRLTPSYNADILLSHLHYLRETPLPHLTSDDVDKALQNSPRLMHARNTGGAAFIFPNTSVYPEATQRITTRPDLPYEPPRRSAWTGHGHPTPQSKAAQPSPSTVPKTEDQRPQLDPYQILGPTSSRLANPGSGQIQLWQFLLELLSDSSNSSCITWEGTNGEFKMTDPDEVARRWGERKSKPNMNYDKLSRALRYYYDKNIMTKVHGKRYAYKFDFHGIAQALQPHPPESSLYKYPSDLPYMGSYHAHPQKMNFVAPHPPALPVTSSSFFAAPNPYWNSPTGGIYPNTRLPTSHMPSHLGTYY
Protocol: as §2, §3

RWPE1-ERG cells = test: Boyden chamber basement membrane matrix invasion assay
Protocol: (§4) Complete media was added to the lower chamber as a chemoattractant. […] Invasive cells, located on the lower side of the membranes, were stained with crystal violet, air dried and photographed. To quantify the relative number of invaded cells, colorimetric assays were performed by treating the inserts with 150 μl of 10% acetic acid (v/v) and measuring absorbance of each sample in a spectrophotometer at 560 nm (GE Healthcare).

PC3-ERG cells = test: as above
Protocol: as §4

ERG [11] = target: T4, ERG; test: Kd[μM]; remark: listed apart in the source
From the text: Table printed on a drawing sheet, FIG. 13
Head of the field: Kd[μM]
Where the first naming reader finds the target: passage: Capping of the EIP1 peptide at both the N- and C-terminus abolished binding to ERG (FIG. 13).

[12] = target: T6, TMPRSS2:ERG gene fusion product (endogenous ERG) (Homo sapiens, UniProt P11308); test: Biotin-peptide pull-down from VCaP cell lysates, immunoblot and mass spectrometry; type: binding; details: 53 kDa band of pull-downs, mass spectrometry
T6 construct: endogenous in cells; host or cells: VCaP cells (ATCC): cultured cells, lysates or extracts, or VCaP xenograft tumours in nude mice
Protocol: Approximately 1 mg of soluble VCaP cell lysate prepared in RIPA buffer (Invitrogen) was incubated with varying amounts of biotinylated peptides for 2 hours at 4° C. HaloLink agarose beads (20 μl) were added to the peptide-lysate mixture and incubated for an additional 4 hours. Beads were then pelleted by centrifugation, washed three times in PBS-T and loaded into an SDSPAGE gel followed by Western blot analysis. Total VCaP cell lysate was loaded for positive control.
The samples were treated with SDS loading buffer supplied with 10 mM DTT for 5 min at 85° C. The proteins were alkylated by adding iodoacetamide to the final concentration of 15 mM. The samples were subjected to SDS-PAGE and the whole lanes were cut out and digested with trypsin in-gel for 2 hours. […]
The resulting spectrum files were transformed into MGF format by MSConvert software and interrogated by MASCOT 2.4 search engine using human UniProt database version 15 concatenated with reverse sequences for estimation of false discovery rate (FDR) and with a list of common contaminants. […] The peptide FDR was calculated as 2×(decoy_hits)/(target+decoy hits). Spectral counts for all detected proteins were assembled using an in-house written Python script. […]

[13] = test system: VCaP (ERG fusion-positive) xenografts; test: VCaP xenograft mouse model, tumor growth; details: 20 mg/kg dose, p<0.01
Protocol: Athymic Nude-Foxnlnu male mice were procured from Harlan Laboratories, Inc (Indianapolis, Ind.). All procedures involving mice were approved by the University Committee on Use and Care of Animals (UCUCA) at the University of Michigan and conformed to their relevant regulatory standards. […] Statistical significance for Kaplan-Meier analysis was determined by the log-rank (Mantel-Cox) test.
Athymic Nude-Foxnlnu male mice were procured from Harlan Laboratories, Inc. (Indianapolis, Ind.). VCaP (2×10^6 cells) or PC3 (5×10^5 cells) were resuspended in 100 μl of saline with 50% Matrigel (BD Biosciences, Becton Drive, NJ) and implanted subcutaneously into the flank regions on both sides of the mice. Mice were anesthetized using a cocktail of xylazine (80-120 mg/kg, IP) and ketamine (10 mg/kg, IP) for chemical restraint before tumor cells implantation. For short term assays, all tumors were staged for three weeks before starting peptidomimetic treatment. After week 3 (VCaP cells) or 12 days (PC3 cells), mice (10 per treatment group) were treated with peptidomimetics (25 mg/kg or 10 mg/kg as indicated, IP) daily five times a week.
Tumor growth was recorded every three days using digital calipers and tumor volumes were calculated using the formula (π/6) (L×W2), where L=length of tumor and W=width. Body weight was monitored weekly over the course of the study. At the end of the xenograft studies, mice were anaesthetized and blood was collected by cardiac puncture and tumors were preserved for further biochemical and immunofluorescence analysis. […] Survival analysis was carried out using the GraphPad Prism 4.0 software (GraphPad Software, San Diego, Calif.). Statistical significance for Kaplan-Meier analysis was determined by the log-rank (Mantel-Cox) test. All procedures involving mice were approved by the University Committee on Use and Care of Animals (UCUCA) at the University of Michigan and conform to their relevant regulatory standards.

Molecule: LPPALFT [muEIP1, LPPALFT]
- disruption of direct ERG:AR interaction (ERG:AR interaction [1]): not
- disruption of direct ERG:DNA-PKcs interaction (ERG:DNA-PKcs interaction [2]): not
- binding to ERG (ERG [3]): failed to bind

Molecule: LSFGSLP [EIP2, LSFGSLP]
- DNA damage caused by oncogenic ERG (EWS-ERG fusion) [4]: reduce DNA damage
- invasion potential [4]: reduced
- DNA damage in cells containing the EWS-FLI1 fusion [5]: no effect
- disruption of direct ERG:AR interaction (ERG:AR interaction [6]): disrupted
- disruption of direct ERG:DNA-PKcs interaction (ERG:DNA-PKcs interaction [7]): disrupted

Molecule: H-PPYLFT-NH2 [6PT-N, H2N- PPYLFT -NH2]
- Kd (ERG [8]): 11.5 µM

Molecule: Ac-LPPYLF-NH2 [6LF-A, Ac- LPPYLF -NH2]
- Kd (ERG [8]): > 100 µM

Molecule: LPPYLFTGGRKKRRQRRRG [TAT-EIP1]
- block of ERG:AR interaction in VCaP cells (ERG:AR interaction [9]): significantly blocked
- block of ERG:DNA-PKcs interaction in VCaP cells (ERG:DNA-PKcs interaction [10]): significantly blocked
- invasion of RWPE1-ERG cells (RWPE1-ERG cells): significantly attenuated
- PC3 cell invasion driven by overexpression of ERG (PC3-ERG cells): inhibited

Molecule: FTFGSLP [FTFGSLP]
- Kd (ERG [3]): 3.9 µM

Molecule: LRFGTLP [LRFGTLP]
- Kd (ERG [3]): 7.9 µM

Molecule: Ac-LPPELFT-NH2 [7LT-4E, Ac- LPPELFT -NH2]
- Kd (ERG [11]): 3.6 µM

Molecule: LSFGSLPGGRKKRRQRRRG [TAT-EIP2]
- block of ERG:AR interaction in VCaP cells (ERG:AR interaction [9]): significantly blocked
- block of ERG:DNA-PKcs interaction in VCaP cells (ERG:DNA-PKcs interaction [10]): significantly blocked
- invasion of RWPE1-ERG cells (RWPE1-ERG cells): significantly attenuated
- PC3 cell invasion driven by overexpression of ERG (PC3-ERG cells): inhibited

Molecule: LPPTFLY [Scr, LPPTFLY, reference compound]
- binding to ERG (ERG [3]): failed to bind

Molecule: LSAGSAP [muEIP2, LSAGSAP, reference compound]
- spectral counts for the ERG peptide NTGGAAFIFPNTSVYPEATQR [12]: 2 spectral counts
- binding to ERG (ERG [3]): failed to bind

Molecule: CC(C)C[C@@H](NC(=O)[C@@H](CO)NC(=O)[C@@H](Cc1ccccc1)NC(=O)CNC(=O)[C@@H](CO)NC(=O)[C@@H](CC(C)C)NC(=O)[C@H]1CCCN1C(=O)CNC(=O)CNC(=O)[C@@H](CCCNC(=N)N)NC(=O)[C@@H](CCCCN)NC(=O)[C@@H](CCCCN)NC(=O)[C@@H](CCCNC(=N)N)NC(=O)[C@@H](CCCNC(=N)N)NC(=O)[C@@H](CCC(N)=O)NC(=O)[C@@H](CCCNC(=N)N)NC(=O)[C@@H](CCCNC(=N)N)NC(=O)[C@@H](CCCNC(=N)N)NC(=O)CN)C(=O)O [RI-EIP2] (H-G[dR][dR][dR][dQ][dR][dR][dK][dK][dR]GG[dP][dL][dS]G[dF][dS][dL]-OH)
- tumor growth of VCaP xenografts [13]: significantly delayed tumor growth
- Kd (ERG [3]): 1.28 µM
